Measured values: ChEMBL document CHEMBL1201862, “PubChem BioAssay data set” (2004)
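Dose response: 5 concentrations. Exposure: 48 h. Format: 96-well plates. Endpoint: linear interpolation; highest concentration if not reached. GI50 = concentration required for 50% inhibition of growth.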 Activity calls are given as the source filed them. Rule as the data show it: active = GI50 up to about 1.1 µM and inactive = higher.

Tests used:
Assay in all cases: NCI-60 cell line screen, 48 h
[1] = tested on: 786-0
[2] = tested on: SF-295
[3] = tested on: HCT-15
[4] = tested on: HCC 2998
[5] = tested on: HOP-92
[6] = tested on: T47D
[7] = tested on: SK-MEL-28
[8] = tested on: LOX IMVI
[9] = tested on: Malme-3M
[10] = tested on: HCT-116
[11] = tested on: SK-MEL-2
[12] = tested on: NCI-H23
[13] = tested on: SF-268
[14] = tested on: HT-29
[15] = tested on: MOLT-4
[16] = tested on: SNB-75
[17] = tested on: HOP-62
[18] = tested on: U-251
[19] = tested on: NCI/ADR-RES
[20] = tested on: UACC-62

Row | Compound | GI50 [1] | GI50 [2] | GI50 [3] [µM] | GI50 [4] | GI50 [5] | GI50 [6] | GI50 [7] | GI50 [8] | GI50 [9] | GI50 [10] | GI50 [11] | GI50 [12] | GI50 [13] | GI50 [14] | GI50 [15] | GI50 [16] | GI50 [17] | GI50 [18] | GI50 [19] | GI50 [20]
1 | COc1cccc2c1C(=O)c1c(O)c3c(c(O)c1C2=O)C[C@@](O)(C(C)=O)C[C@@H]3OC1CC(O)C(O)C(C)O1 (stereo not given in full) | 1.57 µM (inactive) | 0.673 µM (active) | 1.43 | 0.918 µM (active) | 2.1 µM (inactive) | 2.82 µM (inactive) | 6.08 µM (inactive) | 0.59 µM (active) | 0.000916 µM (active) | 0.288 µM (active) | 4.81 µM (inactive) | 0.942 µM (active) | 1.08 µM (active) | 1.41 µM (inactive) | 0.0208 µM (active) | 1.62 µM (inactive) | 0.307 µM (active) | 0.359 µM (active) | 0.36 µM (active) | 1.04 µM (active)
2 | CC(=O)O[C@H]1CC[C@@]2(C)C(=CC[C@@H]3[C@@H]2CC[C@]2(C)C(=O)/C(=C\c4ccccc4)C[C@@H]32)C1 | > 100 µM (inactive) | > 100 µM (inactive) | > 100 | > 100 µM (inactive) | > 100 µM (inactive) | > 100 µM (inactive) | > 100 µM (inactive) | > 100 µM (inactive) | 89.9 µM (inactive) | 96.2 µM (inactive) | > 100 µM (inactive) | > 100 µM (inactive) | > 100 µM (inactive) | > 100 µM (inactive) | 37.8 µM (inactive) | > 100 µM (inactive) | 94 µM (inactive) | > 100 µM (inactive) | > 100 µM (inactive) | > 100 µM (inactive)
3 | Clc1nc2c(N3CCCC3)nc(N3CCNCC3)nc2[nH]1 | 17.8 µM (inactive) | 18.7 µM (inactive) | 18.9 | 15.9 µM (inactive) | 16.6 µM (inactive) | 16.9 µM (inactive) | 22.3 µM (inactive) | 15.8 µM (inactive) | 20.7 µM (inactive) | 16 µM (inactive) | 18.4 µM (inactive) | 16.9 µM (inactive) | 19.2 µM (inactive) | 17.4 µM (inactive) | 20.9 µM (inactive) | 20.1 µM (inactive) | 20 µM (inactive) | 17.2 µM (inactive) | 37.2 µM (inactive) | 17.4 µM (inactive)
